{
  "source": "patent US20090104171A1",
  "about": "“Metabolic Enhancement Therapy” (priority 2007, published 2009)",
  "key": {"[1]": {"details": "oral supplementation, patient groups; cited from earlier work"}, "NMDA glycine site": {"system": "NMDA glycine site", "details": "in vivo; cited from earlier work"}, "[2]": {"details": "cited from earlier work"}, "[3]": {"system": "bacteria, protozoa or viruses", "details": "cited from earlier work"}, "[4]": {"system": "yeasts and yeast-like fungi", "details": "cited from earlier work"}, "[5]": {"details": "oral; cited from earlier work"}, "[6]": {"assay": "Case study Example 2: person with moderately functioning autism", "type": "in vivo, human", "details": "autistic person; for alleviation of behavioral symptoms: complete formulation", "excerpt": "Person diagnosed with moderately functioning autism. Subject's behaviors were noteworthy for acute social withdrawal, pronounced language deficit, obsessive compulsive behaviors, acute anxiety attacks, aggression, hyperactivity, loss of concentration, fear and panic disorder, hyperactivity, depression, sleep deficit and acoustic hypersensitivity. Subject experienced loss of appetite and was underweight, although growth and sexual development was not stunted. […]"}, "[7]": {"assay": "Case study Example 3: person with schizophrenia", "details": "for relief of symptoms (anxiety, obsessive compulsive behavior, psychosis): schizophrenic, formulation given while remaining on clozapine and lithium", "excerpt": "Person diagnosed with schizophrenia. Hospitalized several times suffering from acute psychotic attack with hallucinations and paranoia. Treated with many typical and atypical antipsychotic drugs. […] Over the years, several diagnoses were given, including bipolar disorder, obsessive-compulsive disorder, affective disorder, and combinations thereof. Medications have included lithium, olanzapine, prozac, and several sleep medications. […] Patient went through years of treatment programs and weekly psychiatric sessions. Although they managed (with extreme difficulty) to obtain BA and MA degrees, paranoia and anxiety prevented them from working. Recent history. Patient has been on an atypical antipsychotic (clozapine) and high doses of lithium carbonate for the past 2 years. […] Patient started on Metabolic Enhancement Therapy with the disclosed formulation, while remaining on clozapine and lithium."}, "[8]": {"assay": "Case study Example 4: person with acute anxiety disorder and depression", "details": "2 years of treatment"}, "[9]": {"details": "in vivo; cited from earlier work"}},
  "data": [
    {"compound": "N[C@@H](Cc1c[nH]c2ccc(O)cc12)C(=O)O", "note": "[5-hydroxytryptophan]", "values": [
      {"measurement": "effect on depression in clinical trials", "setting": "[1]", "value": "only minor signs of efficacy"}
    ]},
    {"compound": "N[C@@H]1CONC1=O", "note": "[D-cycloserine]", "values": [
      {"measurement": "extinction of conditioned fear", "setting": "NMDA glycine site", "value": "augment the extinction of conditioned fear"}
    ]},
    {"compound": "O=C(O)c1cccnc1", "note": "[Niacin]", "values": [
      {"measurement": "effects at pharmacologic doses", "setting": "[2]; 2-4 g/day", "value": "vasodilation (flushing reaction), a marked decrease in circulation fatty acids, cholesterol and lipoproteins, and an elevation of serum glucose and uric acid"},
      {"measurement": "dose without reported toxicity", "setting": "[2]; in vivo", "value": "up to 50 mg/day"}
    ]},
    {"compound": "C[C@@H]1[C@H](O)[C@@H](C)/C=C/C=C/CC/C=C/C=C/C=C/C=C/C(O[C@H]2O[C@H](C)[C@@H](O)[C@H](N)[C@@H]2O)CC2O[C@](O)(CC(O)C(O)CCC(O)CC(O)CC(O)CC(=O)O[C@H]1C)CC(O)C2C(=O)O", "note": "(some centres unmarked) [Nystatin]", "values": [
      {"measurement": "activity against bacteria, protozoa or viruses", "setting": "[3]", "value": "no activity"},
      {"measurement": "antifungal activity", "setting": "[4]", "value": "both fungistatic and fungicidal"},
      {"measurement": "tolerability / toxicity in words", "setting": "[2]; in vivo", "value": "generally well tolerated by all age groups"},
      {"measurement": "gastrointestinal absorption", "setting": "[5]", "value": "insignificant"},
      {"measurement": "control of chronic intestinal yeast infections", "setting": "[6]", "value": "effectively controlled yeast infections"}
    ]},
    {"compound": "CNCCC(Oc1ccc(C(F)(F)F)cc1)c1ccccc1", "note": "(centres unmarked) [Prozac]", "values": [
      {"measurement": "side effects induced by medication", "setting": "[7]; in vivo", "value": "induce tremors, rigidity, weight gain and diabetes"},
      {"measurement": "relief of symptoms (anxiety, obsessive compulsive behavior, psychosis)", "setting": "[7]", "value": "None provided relief of symptoms"},
      {"measurement": "side effects", "setting": "[8]", "value": "negative side effects"}
    ]},
    {"compound": "C[S+](CC[C@H](N)C(=O)O)C[C@H]1O[C@@H](n2cnc3c(N)ncnc32)[C@H](O)[C@@H]1O", "note": "(some centres unmarked) [S-adenosyl methionine (SAMe), S-adenosyl methionine]", "values": [
      {"measurement": "effect on depression in clinical trials", "setting": "[1]", "value": "effective treatment for depression"}
    ]},
    {"compound": "Cc1ncc(C[n+]2csc(CCO)c2C)c(N)n1", "note": "[Vitamin B1, Thiamine]", "values": [
      {"measurement": "tolerability / toxicity in words", "setting": "[2]; in vivo", "value": "toxicities are very rare"}
    ]},
    {"compound": "CC(=O)O[C@H](CC(=O)[O-])C[N+](C)(C)C", "note": "[acetyl-L-carnitine]", "values": [
      {"measurement": "effect on depression in clinical trials", "setting": "[1]", "value": "effective in relieving depression"}
    ]},
    {"compound": "NCC(=O)O", "note": "[glycine]", "values": [
      {"measurement": "effect on depression in clinical trials", "setting": "[1]", "value": "useful in the treatment of certain forms of bipolar depression"}
    ]},
    {"compound": "O=C([O-])[O-].[Li+].[Li+]", "note": "[lithium carbonate]", "values": [
      {"measurement": "relief of symptoms (anxiety, obsessive compulsive behavior, psychosis)", "setting": "[7]", "value": "Obsessive-compulsive behavior progressively deteriorated"}
    ]},
    {"compound": "O=C([O-])c1cc(=O)[nH]c(=O)[nH]1.[Li+]", "note": "[lithium orotate]", "values": [
      {"measurement": "increase of delivery of lithium to brain by complexing with orotate", "setting": "[9]", "value": "over 100 fold"}
    ]},
    {"compound": "[Li]", "note": "[lithium]", "values": [
      {"measurement": "side effects induced by medication", "setting": "[7]; prior medications", "value": "induce tremors, rigidity, weight gain and diabetes"}
    ]},
    {"compound": "Cc1cc2c(s1)Nc1ccccc1N=C2N1CCN(C)CC1", "note": "[olanzapine]", "values": [
      {"measurement": "side effects induced by medication", "setting": "[7]; in vivo", "value": "induce tremors, rigidity, weight gain and diabetes"}
    ]},
    {"compound": "Cc1ncc(CO)c(CO)c1O", "note": "[vitamin B6, pyridoxine]", "values": [
      {"measurement": "effect on depression in clinical trials", "setting": "[1]", "value": "helps alleviate depression associated with premenstrual syndrome"},
      {"measurement": "dose reported to induce peripheral neuropathy", "setting": "[2]; in vivo", "value": "exceed 2,000 mg/day"}
    ]},
    {"compound": "amoxtatine", "values": [
      {"measurement": "alleviation of behavioral symptoms", "setting": "[6]", "value": "proved totally ineffective"}
    ]},
    {"compound": "secretin", "values": [
      {"measurement": "alleviation of behavioral symptoms", "setting": "[6]", "value": "proved totally ineffective"}
    ]},
    {"compound": "vitamin B12", "values": [
      {"measurement": "effect on depression in clinical trials", "setting": "[1]", "value": "responsive to B12 supplementation"}
    ]},
    {"compound": "vitamin E", "values": [
      {"measurement": "dose without reported toxicity", "setting": "[2]; in vivo", "value": "up to 800 mg/day"}
    ]}
  ]
}
